Experimental findings from patent US20140023656A1, “PHARMACEUTICAL COMPOSITION FOR TREATMENT AND PREVENTION OF TH3 MARCH-RELATED DISEASES” (BioLT CO., LTD., priority 2010, published 2014) are described below.

In one assay the test system is filaggrin (FLG) proteins. The experiment in a line: ELISA measurement of filaggrin (FLG) and filaggrin repair capacity. The format is in vivo, human. The note with it: person, vulgaris psoriasis. The source says: A kit for sandwich enzyme immunoassay was used for quantitatively in vitro measuring filaggrin (FLG) proteins (gene related filaggrin) in a tissue homogenate or other body fluids.
Specifically, as for detection strength, measurement was done at a wavelength of 450 nm. Biotin-coupled polyclonal antibody specifically coupled with FLG was used, and the actual measured value of filaggrin (ng/ml frozen serum) was roughly estimated by a standard curve (FIG. 17) previously prepared with FLG standard sample.
Amongst mammal patients (human and dog etc.) having Th3 march/test animals, patients an amount of filaggrin proteins based on filaggrin (FLG) gene which is responsible gene of atopy syndrome (atopy is newly defined as atopy syndrome by the finding of filaggrin) were not detected or were detected in a small amount (deletion or mutation of filaggrin gene) were selected (Th3-FLG).
Subsequently, “zinc finger/Znf” (see Table 5 above) was administrated to the patients etc. (Th3-FLG) in which deletion etc. of filaggrin were confirmed, after which filaggrin repair activity was compared. […]
The filaggrin repair capacity (% of control) by zinc finger/Znf was calculated according to the following formula: […]
A general note: An ELISA detects its analyte on a solid surface through an enzyme-linked reagent.

The next assay concerns vulgaris psoriasis. Nature of the assay: Clinical effects in vulgaris psoriasis (Th1 disease/Th3 march). The conditions noted are these: person, oral 75 mg twice per day as polaprezinc, 61 days. The assay is classed as in vivo, human. The procedure: This example is an example of treatment of Th2 march patient from Th1 disease (psoriasis). (1) For referential example (control experiment), zinc agent (Trade name: Promac) was tried to be administrated to this patient. Since the activated TGF-β1 was as high as 9.3 ng/ml (average value of healthy subjects: 1.1 ng/ml), a novel supplement TgF was administrated to regulate TGF-β1. Thereafter, Promac was orally administrated to the adult twice per day in an amount of 75 mg per one dosage, or 1.6 mg/kg at a time after breakfast and a time before bedtime as polaprezinc. Promac was administrated for 61 days. […] (2) On the other hand, zinc finger/Znf was administrated to the patient for 74 days. This case (vulgaris psoriasis) is a disease presenting hyperkeratosis and is characterized by scale.

In a further assay the test system is dog rheumatoid arthritis. Nature of the assay: Treatment of dog rheumatoid arthritis (plain x-ray examination, walking). The format is in vivo. From the text: FIG. 3 is a drawing showing the results of examining characteristic bone resorption in dog rheumatoid arthritis. Th3 march via zinc cell cytokine signal is marching through a route of cell surface BMP and TGF-β1. […] When the healing can be seen thereafter (FIG. 4), bone resorption and bone augmentation are equilibrated. However, TH3 vital reaction is enhanced to clinically induce atopic dermatitiss.
In FIG. 4, according to the finding of the plain x-ray examination, a bone resorption image of arthritis due to rheumatoid arthritis which is Th1 vital reactive disease (pretreatment) is shown. In the right figure of FIG. 4 showing the post-treatment, an improvement image of joint was seen when bone resorption and bone augmentation were balanced. […] According to the finding of post-treatment in the right figure of FIG. 4, incisura trochlearis in the elbow joint was visualized and significant improvement tendency was observed (Evaluation: While the dog before treatment hated going for a walk, the dog could go for a walk (about 5 minutes). It is noted that the standard walking period in the same kind of dog is within 30 minutes).

In the assay with filaggrin (FLG) proteins (at the time after zinc agent (control experiment)), `NCCC(=O)[N-][C@@H](Cc1c[nH]cn1)C(=O)[O-].[Zn+2]` [Promac, polaprezinc] had a filaggrin of 0.9 ng/mL. The FLA repair entry with filaggrin (FLG) proteins (oral 75 mg twice per day as polaprezinc, 61 days) is “could not be recognized”. Further, the clinical effect entry in the assay on vulgaris psoriasis was “no clinical effect could be recognized”; in the assay with vulgaris psoriasis (listed as zinc agent), “no effect”.

B1: IFN-γ: recombinant interferon-gamma used to treat dog rheumatoid arthritis (protein, UniProt P42161 24-166, looked up)
Interferon gamma: QAMFFKEIENLKEYFNASNPDVSDGGSLFVDILKKWREESDKTIIQSQIVSFYLKLFDNFKDNQIIQRSMDTIKEDMLGKFLNSSTSKREDFLKLIQIPVNDLQVQRKAINELIKVMNDLSPRSNLRKRKRSQNLFRGRRASK
B1: the “walk the dog could go for” value in the assay with dog rheumatoid arthritis (dog after treatment, before treatment hated going for a walk, standard within 30 minutes) was “about 5 minutes”. The “bone resorption during the course of the treatment” value with dog rheumatoid arthritis (dog rheumatoid arthritis, FIG. 3) is “bone resorption is predominant”. Also, the “hyperpermeability image due to invasion around the joint and inflammation of joint” value in the assay with dog rheumatoid arthritis (dog, Th1 arthritis, direct administration of 4MU within the joint, plain x-ray) was “significantly improved”.
